pIC50: −log10 of the molar value.
Columns and labels:
[1] = test system: Caov-3 cells; test: Caov3 cell proliferation CTG; assay type: cell-based; conditions: Homo sapiens, treated for 120 hours, CellTiter-Glo
Protocol: Cell treatment and cell growth assessment: 18 hours post-seeding in white 384-Viewplate (6007480, PerkinElmer) at 1500 cells/well, Caov3 cells were treated for 120 hours with compounds inhibiting the METTL3/14 activity (10 serial semi-log dilutions, 30 μM as top concentration). Upon treatment, Coav-3 cells were incubated for 10 min at RT with the CellTiter-Glo reagent (G7571, Promega). Measurement of the luminescence signal was performed on a microplate reader (Ensight, PerkinElmer).

[2] = test system: KASUMI-1 cells; test: Kasumi cell proliferation CTG; assay type: cell-based; conditions: Homo sapiens, Kasumi 1, 120 h, treated for 120 hours, CellTiter-Glo
Protocol: Cell culture: KASUMI-1 cells (ACC20, Leibniz-Institut DSMZ Deutsche Sammlung von Mikroorganismen und Zellkulturen GmbH) were grown in RPMI 1640 (31870-025, Gibco) supplemented with 20% fetal bovine serum (F1524, Gibco), 1 mM sodium pyruvate (11360-039, Gibco) and 2 mM Glutamax (35050-038, Gibco) in a 5% CO2 humidified incubator at 37° C.
Cell treatment and cell growth assessment: KASUMI-1 cells were seeded in ultra-low attachment 384-well culture plate (MS-9384WZ, SBio) at a final concentration of 250 000 cells/ml (35 μL/well) and treated for 120 hours with compounds inhibiting the METTL3/14 activity (10 serial semi-log dilutions, 30 μM as top concentration). Upon treatment, Kasumi1 cells were incubated for 10 min at RT with the CellTiter-Glo reagent (G7571, Promega). Measurement of the luminescence signal was performed on a microplate reader (Ensight, PerkinElmer).

[3] = target: METTL3/14 (Homo sapiens (Human), UniProt Q86U44); test: METTL3/14 methyltransferase assay (RapidFire mass spectrometry, RFMS); assay type: biochemical; conditions: 5 nM METTL3/14, 0.2 μM RNA substrate, 0.5 μM SAM, 60 minutes at room temperature
Protocol: The enzymatic assay was established to determine IC50 values for inhibition of RNA methyltransferase activity. The enzyme used was full-length his-tagged METTL3 co-expressed with full length FLAG-tagged METTL14 in a baculovirus expression system. Enzymatic reactions were performed at room temperature in 384-well plates using a final reaction volume of 20 μL containing 20 mM TrisCl pH 7.6, 1 mM DTT, 0.01% Tween-20. 5 nM final concentration of METTL3/14 was pre-incubated with various compound concentrations for 10 minutes, followed by addition of 0.2 μM final concentration synthetic RNA substrate (5′P-[…]-3′) and 0.5 μM final concentration S-adenosyl-methionine (SAM). The reaction was incubated for a further 60 minutes at room temperature, and then quenched by the addition of 40 μL 7.5% TCA with two internal product standards (D4-SAH and 13C10-SAH). After termination, plates were sealed, centrifuged and stored at 4° C. until analysis.
RNA methyltransferase activity was measured label free using the RapidFire™ mass spectrometry (RF/MS) platform. Stopped and stable assay plates were analyzed on the Agilent RF300 integrated autosampler/solid-phase extraction (SPE) system coupled to an ABSciex 4000 mass spectrometer for the generation of the product S-adenosyl homocysteine (SAH) and normalized to the ratio of signal of the two internal product standards, respectively. Solvent A was water containing 0.1% (v/v) TCA. Solvent B was acetonitrile/0.1% ammonium acetate (8:2, v/v). More specifically, plates were centrifuged at 4350 rpm for 10 min, samples were aspirated under vacuum for 600 ms, then loaded onto a C18 solid-phase extraction cartridge and washed for 3 s with solvent A at a flow rate of 1.5 mL/min. Retained product and internal standards were eluted with solvent B at a flow rate of 1 mL/min for 3 s and finally the cartridge was re-equilibrated with solvent A for 500 ms. The mass transition for the product (SAH) was 384.9/135.9 Da. Transitions of the two internal product standards (IS1: D4-SAH and IS2: 13C10-SAH) were 389.1/135.8 Da and 395.0/134.2 Da, respectively. Ratios of SAH/IS1 and SAH/IS2 were used for normalization of matrix effects. IC50 values were calculated based on dilution series of individual compounds. Potency of a compound was measured at varied inhibitor concentrations and normalized to control wells without RNA substrate and without inhibition (DMSO only).

METTL3/14, sequence (Q86U44 whole entry): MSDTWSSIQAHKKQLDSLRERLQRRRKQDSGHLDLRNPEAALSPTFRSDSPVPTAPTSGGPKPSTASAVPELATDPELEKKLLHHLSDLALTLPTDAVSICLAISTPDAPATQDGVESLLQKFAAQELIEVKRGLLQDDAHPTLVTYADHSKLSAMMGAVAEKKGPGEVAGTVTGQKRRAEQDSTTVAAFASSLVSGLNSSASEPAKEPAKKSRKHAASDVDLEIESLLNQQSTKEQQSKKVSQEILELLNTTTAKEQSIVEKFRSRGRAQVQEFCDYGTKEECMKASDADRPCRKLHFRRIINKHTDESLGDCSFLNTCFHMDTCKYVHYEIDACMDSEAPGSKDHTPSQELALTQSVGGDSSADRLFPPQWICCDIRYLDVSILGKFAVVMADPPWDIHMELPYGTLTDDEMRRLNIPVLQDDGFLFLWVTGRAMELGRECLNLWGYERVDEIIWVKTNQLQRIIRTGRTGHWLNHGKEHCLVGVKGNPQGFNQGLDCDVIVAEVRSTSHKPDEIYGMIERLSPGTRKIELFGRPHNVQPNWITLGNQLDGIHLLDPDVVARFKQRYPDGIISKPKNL
METTL3/14, sequence (Q9HCE5 whole entry partner): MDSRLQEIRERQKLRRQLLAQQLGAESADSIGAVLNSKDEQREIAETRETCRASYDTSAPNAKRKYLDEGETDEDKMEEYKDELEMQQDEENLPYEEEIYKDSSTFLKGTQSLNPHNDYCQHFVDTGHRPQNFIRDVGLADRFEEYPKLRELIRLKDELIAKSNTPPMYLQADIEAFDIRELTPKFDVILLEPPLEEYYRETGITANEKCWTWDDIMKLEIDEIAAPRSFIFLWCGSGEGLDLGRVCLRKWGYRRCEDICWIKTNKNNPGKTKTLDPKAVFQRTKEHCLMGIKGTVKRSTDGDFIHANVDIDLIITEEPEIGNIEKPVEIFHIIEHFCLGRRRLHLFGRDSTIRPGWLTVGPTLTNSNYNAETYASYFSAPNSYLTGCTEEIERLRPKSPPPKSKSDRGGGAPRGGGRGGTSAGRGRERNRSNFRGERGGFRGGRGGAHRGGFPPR

| pIC50 [3] | SMILES | pIC50 [1] | pIC50 [2] |
| --- | --- | --- | --- |
| 6.93 | Nc1ncnc2c1c(Br)cn2[C@@H]1C[C@H](c2cccc(CCNCC34CC(F)(C3)C4)c2)[C@@H](O)[C@H]1O [Example 37, (1R,2S,3R,5R)-3-{4-amino-5-bromo-7H-pyrrolo[2,3-d]pyrimidin-7-yl}-5-(3-{2-[{{3-fluorobicyclo[1.1.1]pentan-1-yl}methyl)amino]ethyl}phenyl)cyclopentane-1,2-diol] | 5.49 | 5.67 |
| 5.58 | Nc1ncnc2c1c(Br)cn2[C@@H]1C[C@H](c2cccc(CN3CCC4(CCC4)C3)c2)[C@@H](O)[C@H]1O [Example 38, (1R,2S,3R,5R)-3-{4-amino-5-bromo-7H-pyrrolo[2,3-d]pyrimidin-7-yl}-5-[3-({6-azaspiro[3.4]octan-6-yl}methyl)phenyl]cyclopentane-1,2-diol] | 5.17 | 5.53 |
| 5.52 | Nc1ncnc2c1c(Br)cn2[C@@H]1C[C@H](c2cccc(CNCC34CC(F)(C3)C4)c2)[C@@H](O)[C@H]1O [Example 39, (1R,2S,3R,5R)-3-{4-amino-5-bromo-7H-pyrrolo[2,3-d]pyrimidin-7-yl}-5-(3-{[{{3-fluorobicyclo[1.1.1]pentan-1-yl}methyl)amino]methyl}phenyl)cyclopentane-1,2-diol] | 5.33 | 5.62 |
